{
  "source": "patent US20260166016A1",
  "about": "“GPR139 RECEPTOR AGONIST, PREPARATION METHOD THEREFOR, AND APPLICATION THEREOF” (NEUBO APPTECH CO., LTD., priority 2022, published 2026)",
  "key": {"[1]": {"system": "LPS induced mouse depression model", "assay": "LPS induced mouse depression model, corticosterone level", "type": "in vivo", "conditions": "gavage 2.5 mg/mL at 0.1 mL/10 g twice daily Day 1-4, blood collected Day 5, FIG. 8", "description": "(§1) Mice: Male Crl: CD1 (ICR) mice; 10-14 weeks old; Weight: 35-40 g; Quantity: 40 pieces\n(§2) Group 1, placebo+saline group: 10 mice; divided into 2 cages, 5 mice per cage.\n(§3) Group 2, placebo+lipopolysaccharide (LPS) group: 10 mice; divided into 2 cages, 5 mice per cage.\n(§4) Group 3, compound NRB181+saline group: 10 mice; divided into 2 cages, 5 mice per cage.\n(§5) Group 4, compound NRB181+lipopolysaccharide (LPS) group: 10 mice; divided into 2 cages, 5 mice per cage.\n(§6) 21.3.1 Preparation of placebo before experiment: 0.5% CMC sodium+1% Tween80+saline. In a clean bench, 4 tubes of 40 mL placebo were prepared using pyrogen-free centrifuge tubes and ultrapure water, totaling 160 mL, ensuring the absence of endotoxins (LPS). Sterile and endotoxin free centrifuge tubes were used to divide […] of placebo into 4 mL/tube, for a total of 30 tubes, and stored at 4° C. for future use.\nLPS with a purity of >98% was required 3.2 mg of LPS was accurately weighed and dissolved in 40 mL of placebo to prepare a sterile solution of 0.08 mg/mL. After thorough mixing, the solution was divided into sterile and endotoxin-free centrifuge tubes, 4 mL per tube. The LPS solution needed for the next day was stored at 4° C. (3 tubes), while the rest was frozen at −20° C. for future use. […]"}, "acutely restrained mice": {"system": "acutely restrained mice", "assay": "Pentobarbital sodium sleep test in mice under acute restraint stress", "type": "in vivo, mouse", "conditions": "male C57BL/6J mice; gavage of 0.1, 0.5, 2.5 mg/mL solutions at 0.1 mL/10 g; 30 minutes later acute restraint for 3 hours; pentobarbital sodium 40 mg/kg i.p.; dose-dependent; FIG. 2", "description": "Mouse: Male C57BL/6J; 8 weeks old; Weight: 20-25 g; Quantity: 31 pieces\nGroup 1, acute restraint sleeping placebo group, 7 mice, fed with regular care.\nGroup 2, acute restraint sleeping+low-dose of compound NRB181 group, 8 mice. The mice were fasted and deprived of water during the acute restraint period, and were kept normally at other times.\nGroup 3, acute restraint sleeping+moderate-dose of compound NRB181 group, 8 mice. The mice were fasted and deprived of water during the acute restraint period, and were kept normally at other times.\nGroup 4, acute restraint sleeping+high-dose of compound NRB181 group, 8 mice. The mice were fasted and deprived of water during the acute restraint period, and were kept normally at other times.\n19.3.1 Preparation of placebo one day before the experiment: 0.5% CMC sodium+1% Tween80+saline.\nOn the day before the experiment, a high-dose solution of compound NRB181 was prepared: 6 mg of NRB181 was weighed and dissolved in 2.4 mL of placebo to prepare a 2.5 mg/mL solution of NRB181. Sonicated for 10 minutes and stored at 4° C. for later use.\nThe day before the experiment, a moderate-dose solution of compound NRB181 was prepared: […] of the above high-dose solution was taken and added to a 2 mL placebo centrifuge tube, mixed well, a 0.5 mg/mL NRB181 solution was prepared, sonicated for 10 minutes, and stored at 4° C. for later use. […]"}, "[2]": {"system": "metabolic enzymes of pentobarbital sodium", "assay": "LC-MS detection of pentobarbital sodium content in anesthetized mice (pilot experiment)", "type": "in vivo, mouse", "conditions": "pentobarbital sodium content in mice by LC-MS, placebo vs compound", "description": "In addition, to determine whether compound NRB181 has an effect on the metabolic enzymes of pentobarbital sodium, we used LC-MS method to detect the pentobarbital sodium content in mice anesthetized with pentobarbital sodium under placebo and compound action in the pilot experiment."}, "[3]": {"system": "LPS induced mouse depression model", "assay": "LPS induced mouse depression model, Open Field Test", "type": "in vivo", "conditions": "gavage 2.5 mg/mL at 0.1 mL/10 g twice daily Day 1-4, test 6 hours after injection, FIGS. 6 and 7", "description": "as §1, §2, §3, §4, §5, §6\nLPS with a purity of >98% was required 3.2 mg of LPS was accurately weighed and dissolved in 40 mL of placebo to prepare a sterile solution of 0.08 mg/mL. […]\n21.3.13 On the afternoon of the Day 4 of the experiment, 6 hours after mice in Group 1 were injected with saline, an Open Field Test was conducted on each group starting from Group 1. Relevant parameters were recorded, and then the mice in each group were returned to their respective home cages."}},
  "data": [
    {"smiles": "C[C@H](NC(=O)CNC(=O)c1cc(Cl)ccn1)c1c(F)cccc1F", "note": "[NRB181]", "values": [
      {"measurement": "expression level of corticosterone", "setting": "[1]", "value": "significantly reduce the expression level of corticosterone"},
      {"measurement": "sleep time of pentobarbital sodium anesthetized mice", "setting": "acutely restrained mice", "value": "significantly increased"},
      {"measurement": "effect on the metabolic enzymes of pentobarbital sodium", "setting": "[2]", "value": "no effect"},
      {"measurement": "activity of mice in the Open Field Test (number of line crossings, total distance traveled)", "setting": "[3]", "value": "significantly increased the activity"}
    ]}
  ]
}
